# Test results: patent US8030354B2, “Substituted biphenyl GPR40 modulators” (Amgen Inc., priority 2007, dated 2011)
# Key:
# [1] = molecular target: T1, GPR40 (Homo sapiens, UniProt O14842); test: Cell-based aequorin assay (CHO cells stably expressing GPR40 and aequorin); design: expressed in transfected cells; host or cells: CHO cells stably transfected with GPR40 and aequorin; settings: for EC50: activation of human GPR40, CHO cells, 0.01% HSA; for agonist type in aequorin assay: compared with α-linolenic acid and docosahexaenoic acid, FIG. 2
# In short: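 CHO cells stably co-expressing GPR40 and aequorin, loaded with coelenterazine (1 ug/mL, 2 h, room temperature) in H/HBSS with 20 mM Hepes and 0.01% fatty acid-free HSA. Serially diluted compounds added; luminescence recorded over 20 s. EC50 from dose-response of maximum relative light units.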
# [2] = molecular target: T1, GPR40; test: Competition binding assay on A9 membranes expressing GPR40 with [3H] labeled Comparative Compound 1; design: expressed in transfected cells; host or cells: membranes of A9 cells expressing GPR40; settings: 5 nM radioligand, 4 hours, room temperature
# Protocol: Competition binding assays were performed on A9 membranes expressing GPR40.
# [3] = molecular target: T1, GPR40; test: Inositol phosphate accumulation assay (A9_GPR40 cells); type: cell-based; design: expressed in transfected cells; host or cells: CHO cells stably transfected with GPR40 and aequorin; settings: for agonist type in inositol phosphate accumulation assay: [3H] inositol accumulation after 1 hour, FIG. 3; for EC50: inositol phosphate assay, A9_GPR40 cells, 1 hour, read-out: IP3 EC50
# In short: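 A9 cells stably expressing GPR40 were labelled 16 h with 1 μCi/mL ^3H-inositol in inositol-free DMEM with dialysed FBS. Compounds in HBSS/10 mM LiCl with HSA were applied for 1 h at 37° C, then quenched with 20 mM formic acid. Accumulated [^3H] inositol phosphates were counted by SPA.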
# [4] = molecular target: T1, GPR40; test: Inositol phosphate accumulation in response to compounds; type: cell-based; design: expressed in transfected cells; settings: FIG. 3; as a function of concentration; compared with Comparative Compound 1
# Source text: FIG. 3 is a graph showing inositol phosphate accumulation in response to various compounds as a function of concentration.
# [5] = molecular target: T1, GPR40; test: Displacement of 3H-labeled Comparative Compound 1 by unlabeled compounds; type: binding; design: expressed in transfected cells; host or cells: membranes of A9 cells expressing GPR40; settings: FIG. 1
# [6] = tested on: fetal rat intestinal cells isolated from E19 rat embryos; test: GLP-1 secretion into culture medium from fetal rat intestinal cells; type: cell-based; settings: FIG. 5-7; cultured cells treated with serial dilutions of compound
# Protocol: (§1) FIG. 5 is a graph showing the concentration of GLP-1 secreted into culture medium as a function of the amount of Example compounds 14 and 69.8. The GLP-1 was secreted from fetal rat intestinal cells isolated from E19 rat embryos. The cultured cells were treated with serial dilutions of the indicated compounds, and GLP-1 secreted into the culture medium was determined.
# as §1, with “6” for “5”, “compound 66.6.” for “compounds 14 and 69.8.”, “compound,” for “compounds,”
# as §1, with “7” for “5”, “14, 66.17, 77.3,” for “14”, “83.1.” for “69.8.”
# [7] = molecular target: T1, GPR40; test: Aequorin luminescence in response to compounds; type: cell-based; design: expressed in transfected cells; settings: FIG. 2; as a function of concentration; compared with fatty acid ligands
# Source text: FIG. 2 is a graph showing Aequorin luminescence in response to various compounds as a function of concentration.
# T1 sequence (O14842 whole entry): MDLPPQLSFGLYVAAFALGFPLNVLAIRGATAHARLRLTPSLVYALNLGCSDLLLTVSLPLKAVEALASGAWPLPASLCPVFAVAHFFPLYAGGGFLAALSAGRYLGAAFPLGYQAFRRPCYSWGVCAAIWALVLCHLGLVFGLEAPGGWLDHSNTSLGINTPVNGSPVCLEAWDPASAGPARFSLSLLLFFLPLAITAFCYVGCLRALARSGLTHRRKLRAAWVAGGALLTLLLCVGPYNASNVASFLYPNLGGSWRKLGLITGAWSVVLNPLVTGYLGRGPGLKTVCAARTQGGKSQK
EC50 [1],EC50 [3],Compound,concentration of GLP-1 secreted into culture medium [6],further results
100 to 1000 nM,100 to 1000 nM,"CCCCOc1cc(COc2cccc([C@@H](CC(=O)O)C3CC3)c2)ccc1-c1cc(OC)ccc1F (single isomer, unassigned) [Example 9, (3S)-3-(3-(((2-(Butyloxy)-2′-fluoro-5′-(methyloxy)-1,1′-biphenyl-4-yl)methyl)oxy)phenyl)-3-cyclopropylpropanoic acid or (3R)-3-(3-(((2-(butyloxy)-2′-fluoro-5′-(methyloxy)-1,1′-biphenyl-4-yl)methyl)oxy)phenyl)-3-cyclopropylpropanoic acid]",–,displacement of bound [3H] labeled Comparative Compound 1 [2]: did not displace; effect on binding of the radioligand (Comparative Compound 1) to the receptor [2]: enhanced the binding of the radioligand; agonist type in inositol phosphate accumulation assay [3]: potent full agonists; inositol phosphate accumulation [4]: greater than Comparative Compound 1; displacement of 3H-labeled Comparative Compound 1 / total binding of 3H-labeled Comparative Compound 1 [5]: enhanced the total binding
100 to 1000 nM,< 10 nM,"COc1ccc(F)c(-c2ccc(COc3cccc([C@@H](CC(=O)O)C4CC4)c3)cc2C2CCCC2(C)C)c1 (single isomer, unassigned) [Example 66.4, (3S)-3-Cyclopropyl-3-(3-(((2-(2,2-dimethylcyclopentyl)-2′-fluoro-5′-(methyloxy)-1,1′-biphenyl-4-yl)methyl)oxy)phenyl)propanoic acid or (3R)-3-cyclopropyl-3-(3-(((2-(2,2-dimethylcyclopentyl)-2′-fluoro-5′-(methyloxy)-1,1′-biphenyl-4-yl)methyl)oxy)phenyl)propanoic acid]",–,agonist type in aequorin assay [1]: potent full agonists; Aequorin luminescence [7]: equivalent to naturally occurring fatty acid ligands
10 to 100 nM,< 10 nM,"COc1ccc(F)c(-c2ccc(COc3cccc(C(CC(=O)O)C4CC4)c3)cc2C2CCCC2(C)C)c1 (single isomer, unassigned) [Example 66.6]",significantly stimulated GLP-1 secretion,–
10 to 100 nM,< 10 nM,"COc1ccc(F)c(-c2ccc(COc3cccc([C@@H](CC(=O)O)C4CC4)c3)cc2CC(C)(C)C)c1 (single isomer, unassigned) [Example 66.17, (3S)-3-Cyclopropyl-3-(3-(((2-(2,2-dimethylpropyl)-2′-fluoro-5′-(methyloxy)-1,1′-biphenyl-4-yl)methyl)oxy)phenyl)propanoic acid or (3R)-3-cyclopropyl-3-(3-(((2-(2,2-dimethylpropyl)-2′-fluoro-5′-(methyloxy)-1,1′-biphenyl-4-yl)methyl)oxy)phenyl)propanoic acid]",significantly stimulated GLP-1 secretion,–
100 to 1000 nM,< 10 nM,"CCC(CC(=O)O)c1cccc(OCc2ccc(-c3cc(OC)ccc3F)c(C3CCCC3(C)C)c2)c1F (single isomer, unassigned) [Example 77.3]",significantly stimulated GLP-1 secretion,–
10 to 100 nM,< 10 nM,"COc1ccc(F)c(-c2ccc(COc3cccc(C(CC(=O)O)C4CC4)c3F)cc2C2CCCC2(C)C)c1 (single isomer, unassigned) [Example 83.1]",significantly stimulated GLP-1 secretion,–
100 to 1000 nM,> 1000 nM,"COc1cccc(-c2ccc(COc3cccc(CCC(=O)O)c3)cc2OC(F)(F)F)c1 [Example 37, 3-[3-(3′-Methoxy-2-trifluoromethoxy-biphenyl-4-ylmethoxy)-phenyl]-propionic acid]",–,–
100 to 1000 nM,1000 to 10000 nM,"COc1ccc(F)c(-c2ccc(COc3cccc(CCC(=O)O)c3)cc2OC(F)(F)F)c1 [Example 38, 3-[3-(2′-Fluoro-5′-methoxy-2-trifluoromethoxy-biphenyl-4-ylmethoxy)-phenyl]-propionic acid]",–,–
1000 to 10000 nM,100 to 1000 nM,"COc1ccc(F)c(-c2ccc(COc3cccc(CCC(=O)O)c3)cc2C2=CCCC2)c1 [Example 39, 3-[3-(2-Cyclopent-1-enyl-2′-fluoro-5′-methoxy-biphenyl-4-ylmethoxy)-phenyl]-propionic acid]",–,–
10 to 100 nM,< 10 nM,COc1cccc(-c2ccc(COc3cccc(C(CC(=O)O)C4CC4)c3)cc2C2CCCC2(C)C)c1 (stereo not shown) [Example 66.8],–,–
100 to 1000 nM,1000 to 10000 nM,"COc1ccc(F)c(-c2ccc(COc3cc(CCC(=O)O)ccn3)cc2C(C)(C)C)c1 [Example 72, 3-(2-(((2-(1,1-Dimethylethyl)-2′-fluoro-5′-(methyloxy)-1,1′-biphenyl-4-yl)methyl)oxy)-4-pyridinyl)propanoic acid]",–,–
100 to 1000 nM,100 to 1000 nM,"COc1ccc(F)c(-c2ccc(COc3cccc(C(C)(C)CC(=O)O)c3)cc2C(C)(C)C)c1 [Example 85.1, 3-[3-(2-tert-Butyl-2′-fluoro-5′-methoxy-biphenyl-4-ylmethoxy)-phenyl]-3-methyl-butyric acid]",–,–
100 to 1000 nM,10 to 100 nM,"COc1ccc(F)c(-c2ccc(COc3cccc(C(C)(C)CC(=O)O)c3)cc2C2=CCCC2(C)C)c1 [Example 85.2, 3-{3-[2-(5,5-Dimethyl-cyclopent-1-enyl)-2′-fluoro-5′-methoxy-biphenyl-4-ylmethoxy]-phenyl}-3-methyl-butyric acid]",–,–
100 to 1000 nM,100 to 1000 nM,"COc1ccc(F)c(-c2ccc(COc3cc(CCC(=O)O)ccn3)cc2C2=CCCC2(C)C)c1 [Example 95, 3-(2-(((2-(5,5-Dimethyl-1-cyclopenten-1-yl)-2′-fluoro-5′-(methyloxy)-1,1′-biphenyl-4-yl)methyl)oxy)-4-pyridinyl)propanoic acid]",–,–

Compound,EC50 [1],EC50 [3],concentration of GLP-1 secreted into culture medium [6],further results
"COc1ccc(F)c(-c2ccc(COc3cccc([C@@H](CC(=O)O)C4CC4)c3)cc2C2=CCCC2(C)C)c1 (single isomer, unassigned) [Example 14, (3S)-3-Cyclopropyl-3-(3-(((2-(5,5-dimethyl-1-cyclopenten-1-yl)-2′-fluoro-5′-(methyloxy)-1,1′-biphenyl-4-yl)methyl)oxy)phenyl)propanoic acid or (3R)-3-cyclopropyl-3-(3-(((2-(5,5-dimethyl-1-cyclopenten-1-yl)-2′-fluoro-5′-(methyloxy)-1,1′-biphenyl-4-yl)methyl)oxy)phenyl)propanoic acid]",100 to 1000 nM,10 to 100 nM,significantly stimulated GLP-1 secretion,agonist type in aequorin assay [1]: potent full agonists; displacement of bound [3H] labeled Comparative Compound 1 [2]: did not displace; effect on binding of the radioligand (Comparative Compound 1) to the receptor [2]: enhanced the binding of the radioligand; agonist type in inositol phosphate accumulation assay [3]: potent full agonists; Aequorin luminescence [7]: equivalent to naturally occurring fatty acid ligands; inositol phosphate accumulation [4]: greater than Comparative Compound 1; displacement of 3H-labeled Comparative Compound 1 / total binding of 3H-labeled Comparative Compound 1 [5]: enhanced the total binding
"COc1ccc(F)c(-c2ccc(COc3cccc([C@@H](CC(=O)O)CC4CC4)c3)cc2[C@H]2CCCC2(C)C)c1 (single isomer, unassigned) [Example 69.8]",10 to 100 nM,< 10 nM,significantly stimulated GLP-1 secretion,–
